These results are taken from patent publication US20090131431A1, “Pyrazolo[3,4-b]pyridine compounds, and their use as a PDE4 inhibitors” (priority 2005, published 2009).

One experiment has as its system COPD patients. To be noted: cited from earlier work.
Experiment [1] concerns atopic dermatitis patients. To be noted: cited from earlier work.
In experiment [2] the test system is humans with histories of allergic rhinitis. To be noted: orally 500 ug once daily for 9 days; intranasal allergen provocation (pollen extracts); cited from earlier work.
For experiment [3], the target named is T1, PDE4B (human recombinant) (Homo sapiens, UniProt Q07343).
T1 construct: made in house
T1 sequence (Q07343 1-564 isoform Q07343-2): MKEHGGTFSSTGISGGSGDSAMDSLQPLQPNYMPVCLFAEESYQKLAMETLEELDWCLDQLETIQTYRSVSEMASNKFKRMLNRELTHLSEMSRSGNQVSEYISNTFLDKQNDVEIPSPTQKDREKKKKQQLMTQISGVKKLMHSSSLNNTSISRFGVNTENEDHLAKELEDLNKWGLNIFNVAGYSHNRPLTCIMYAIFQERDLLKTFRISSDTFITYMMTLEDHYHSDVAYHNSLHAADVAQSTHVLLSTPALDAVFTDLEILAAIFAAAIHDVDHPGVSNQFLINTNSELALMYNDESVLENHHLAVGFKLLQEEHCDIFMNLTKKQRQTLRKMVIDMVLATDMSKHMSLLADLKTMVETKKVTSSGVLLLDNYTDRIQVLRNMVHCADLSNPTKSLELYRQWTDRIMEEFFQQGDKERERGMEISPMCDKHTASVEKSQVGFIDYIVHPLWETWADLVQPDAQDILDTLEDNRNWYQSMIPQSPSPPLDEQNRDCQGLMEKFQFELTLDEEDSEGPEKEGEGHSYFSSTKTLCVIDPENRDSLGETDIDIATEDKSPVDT
As to the kind of experiment: Inhibition of PDE4B activity: SPA and/or Fluorescence Polarisation (FP) assay. To be noted: one reading (n=1) or average of 2 or more readings, read-out: PDE4B pIC50 (±about 0.5) (converted). The format is biochemical. The method, boiled down:
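Human recombinant PDE4B activity measured by SPA with [3H]cAMP at about 10 nM, 1 h at ambient temperature, enzyme set for ≤20% substrate hydrolysis, or by IMAP FP with Fl-cAMP at about 40 nM, 40 min at ambient temperature under linear conditions. Inhibition curves fitted; values reported as pIC50.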
Background: In fluorescence polarisation assays a small probe gives low polarisation when free and higher when bound to something large.

`COc1ccc([C@]2(C#N)CC[C@@H](C(=O)O)CC2)cc1OC1CCCC1` [cilomilast]: the “forced expiratory volume in 1s (FEV1) in COPD patients” value in the experiment on COPD patients (15 mg orally twice daily) was “appears to improve forced expiratory volume in 1s (FEV1)”. Further, the “antiinflammatory effects in COPD patients” value in the experiment on COPD patients (human, in vivo) is listed as “appears to have antiinflammatory effects”.

`Nc1nc2c([nH]1)c(=O)n(CC1CC1)c(=O)n2CC1CC1` [cipamfylline]: the “effectiveness in the treatment of atopic dermatitis patients” value in experiment [1] (0.15% cream, vs vehicle and hydrocortisone 17-butyrate (0.1%) cream) was “significantly more effective than vehicle, but significantly less effective than hydrocortisone 17-butyrate (0.1%) cream”.

`COc1ccc(C2CNC(=O)NC2)cc1O[C@H]1C[C@@H]2CC[C@H]1C2` [CP80,633]: in experiment [1] (0.5% ointment, twice daily topical application), the “inflammatory parameters in atopic dermatitis patients” value is recorded as “reductions of inflammatory parameters”.

For `O=C(Nc1c(Cl)cncc1Cl)c1ccc(OC(F)F)c(OCC2CC2)c1` [roflumilast], in experiment [2], the “rhinal airflow during the treatment period (compared to placebo)” value is on record as “effective in improving rhinal airflow”. The “FEV1 in COPD patients” value in the experiment on COPD patients (human, in vivo) is recorded as “appears to show small improvements in FEV1”.

In the case of `CCc1nc2c(cnn2CC)c(NC2CCOCC2)c1CNC(=O)c1ccc(C(N)=O)cc1` [Example 253, N-{[1,6-diethyl-4-(tetrahydro-2H-pyran-4-ylamino)-1H-pyrazolo[3,4-b]pyridin-5-yl]methyl}-1,4-benzenedicarboxamide], the IC50 in experiment [3] is 0.01 to 0.1 nM.

Turning to `CCc1nc2c(cnn2CC)c(NC2CCOCC2)c1CNC(=O)c1ccncc1F` [Example 231, N-{[1,6-diethyl-4-(tetrahydro-2H-pyran-4-ylamino)-1H-pyrazolo[3,4-b]pyridin-5-yl]methyl}-3-fluoro-4-pyridinecarboxamide], in experiment [3], the IC50 was 0.126 to 1 nM.

With `CCc1nc2c(cnn2CC)c(NC2CCOCC2)c1CNC(=O)c1ccc(C(C)(C)C)cc1` [Example 252, N-{[1,6-diethyl-4-(tetrahydro-2H-pyran-4-ylamino)-1H-pyrazolo[3,4-b]pyridin-5-yl]methyl}-4-(1,1-dimethylethyl)benzamide], in experiment [3], the IC50 is 0.01 to 0.1 nM.

On to `CCc1nc2c(cnn2CC)c(NC2CCOCC2)c1CN1CCN(C)C1=O` [Example 343, 1-{[1,6-diethyl-4-(tetrahydro-2H-pyran-4-ylamino)-1H-pyrazolo[3,4-b]pyridin-5-yl]methyl}-3-methyl-2-imidazolidinone], for which the IC50 in experiment [3] was 0.126 to 1 nM.

As to `CCn1ncc2c(NC3CCOCC3)c(CN3Cc4ccccc4C3=O)c(C)nc21` [Example 300, 2-{[1-ethyl-6-methyl-4-(tetrahydro-2H-pyran-4-ylamino)-1H-pyrazolo[3,4-b]pyridin-5-yl]methyl}-2,3-dihydro-1H-isoindol-1-one], in experiment [3], the IC50 was 0.126 to 1 nM.

As to `CCc1nc2c(cnn2CC)c(NC2CCOCC2)c1CNC(=O)c1cnccn1` [Example 146, N-{[1,6-diethyl-4-(tetrahydro-2H-pyran-4-ylamino)-1H-pyrazolo[3,4-b]pyridin-5-yl]methyl}-2-pyrazinecarboxamide], in experiment [3], the IC50 is 0.126 to 1 nM.

Take `CCn1ncc2c(NC3CCN(C(N)=O)CC3)c(CNC(=O)c3cccc4c3OCC4)c(C)nc21` [Example 270, 4-[(5-{[(2,3-dihydro-1-benzofuran-7-ylcarbonyl)amino]methyl}-1-ethyl-6-methyl-1H-pyrazolo[3,4-b]pyridin-4-yl)amino]-1-piperidinecarboxamide]: the IC50 in experiment [3] was 0.01 to 0.1 nM.

Take `CCc1nc2c(cnn2CC)c(NC2CCOCC2)c1CNC(=O)c1ccc(C(C)(C)C)cc1O` [Example 256, N-{[1,6-diethyl-4-(tetrahydro-2H-pyran-4-ylamino)-1H-pyrazolo[3,4-b]pyridin-5-yl]methyl}-4-(1,1-dimethylethyl)-2-hydroxybenzamide]: in experiment [3], the IC50 was 0.01 to 0.1 nM.

For `CCc1nc2c(cnn2CC)c(NC2CCN(C(N)=O)CC2)c1CNC(=O)c1ccc(N2CCOCC2)cc1` [Example 207, 4-({1,6-diethyl-5-[({[4-(4-morpholinyl)phenyl]carbonyl}amino)methyl]-1H-pyrazolo[3,4-b]pyridin-4-yl}amino)-1-piperidinecarboxamide], the IC50 in experiment [3] was 0.01 to 0.1 nM.

`CCn1ncc2c(NC3CCOCC3)c(CNC(=O)c3ccc(C(C)C)cc3)c(C)nc21` [Example 278, N-{[1-ethyl-6-methyl-4-(tetrahydro-2H-pyran-4-ylamino)-1H-pyrazolo[3,4-b]pyridin-5-yl]methyl}-4-(1-methylethyl)benzamide]: the IC50 in experiment [3] was 0.01 to 0.1 nM.

In the case of `CCc1nc2c(cnn2CC)c(NC2CCOCC2)c1CNC(=O)c1csc(C)n1` [Example 309, N-{[1,6-diethyl-4-(tetrahydro-2H-pyran-4-ylamino)-1H-pyrazolo[3,4-b]pyridin-5-yl]methyl}-2-methyl-1,3-thiazole-4-carboxamide], in experiment [3], the IC50 was 0.126 to 1 nM.

Consider `CCn1ncc2c(NC3CCN(C(N)=O)CC3)c(CNC(=O)c3ccc(C)cc3O)c(C)nc21` [Example 265, 4-{[1-ethyl-5-({[(2-hydroxy-4-methylphenyl)carbonyl]amino}methyl)-6-methyl-1H-pyrazolo[3,4-b]pyridin-4-yl]amino}-1-piperidinecarboxamide], for which the IC50 in experiment [3] is 0.01 to 0.1 nM.

Regarding `CCn1ncc2c(NC3CCOCC3)c(CNC(=O)c3cncs3)c(C)nc21` [Example 226, N-{[1-ethyl-6-methyl-4-(tetrahydro-2H-pyran-4-ylamino)-1H-pyrazolo[3,4-b]pyridin-5-yl]methyl}-1,3-thiazole-5-carboxamide], the IC50 in experiment [3] was 0.126 to 1 nM.

With `CCc1nc2c(cnn2CC)c(NC2CCN(C(N)=O)CC2)c1CNC(=O)c1ccc2c(c1)CCC2` [Example 206, 4-[(5-{[(2,3-dihydro-1H-inden-5-ylcarbonyl)amino]methyl}-1,6-diethyl-1H-pyrazolo[3,4-b]pyridin-4-yl)amino]-1-piperidinecarboxamide], the IC50 in experiment [3] was 0.126 to 1 nM.
